Assays:
human TRPM5 = molecular target: T1, human TRPM5 (Homo sapiens, UniProt Q9NZQ8); assay: FLIPR membrane potential dye screening assay, ATP-stimulated, TRPM5-transfected HEK293 cells; assay type: cell-based; conditions: maximum percent inhibition at concentrations between 10 μM and 100 μM; HEK293 cells with human TRPM5; 10 μM ATP; versus negative control wells
T1 construct: expressed in transfected cells
T1 sequence (Q9NZQ8 1-1165): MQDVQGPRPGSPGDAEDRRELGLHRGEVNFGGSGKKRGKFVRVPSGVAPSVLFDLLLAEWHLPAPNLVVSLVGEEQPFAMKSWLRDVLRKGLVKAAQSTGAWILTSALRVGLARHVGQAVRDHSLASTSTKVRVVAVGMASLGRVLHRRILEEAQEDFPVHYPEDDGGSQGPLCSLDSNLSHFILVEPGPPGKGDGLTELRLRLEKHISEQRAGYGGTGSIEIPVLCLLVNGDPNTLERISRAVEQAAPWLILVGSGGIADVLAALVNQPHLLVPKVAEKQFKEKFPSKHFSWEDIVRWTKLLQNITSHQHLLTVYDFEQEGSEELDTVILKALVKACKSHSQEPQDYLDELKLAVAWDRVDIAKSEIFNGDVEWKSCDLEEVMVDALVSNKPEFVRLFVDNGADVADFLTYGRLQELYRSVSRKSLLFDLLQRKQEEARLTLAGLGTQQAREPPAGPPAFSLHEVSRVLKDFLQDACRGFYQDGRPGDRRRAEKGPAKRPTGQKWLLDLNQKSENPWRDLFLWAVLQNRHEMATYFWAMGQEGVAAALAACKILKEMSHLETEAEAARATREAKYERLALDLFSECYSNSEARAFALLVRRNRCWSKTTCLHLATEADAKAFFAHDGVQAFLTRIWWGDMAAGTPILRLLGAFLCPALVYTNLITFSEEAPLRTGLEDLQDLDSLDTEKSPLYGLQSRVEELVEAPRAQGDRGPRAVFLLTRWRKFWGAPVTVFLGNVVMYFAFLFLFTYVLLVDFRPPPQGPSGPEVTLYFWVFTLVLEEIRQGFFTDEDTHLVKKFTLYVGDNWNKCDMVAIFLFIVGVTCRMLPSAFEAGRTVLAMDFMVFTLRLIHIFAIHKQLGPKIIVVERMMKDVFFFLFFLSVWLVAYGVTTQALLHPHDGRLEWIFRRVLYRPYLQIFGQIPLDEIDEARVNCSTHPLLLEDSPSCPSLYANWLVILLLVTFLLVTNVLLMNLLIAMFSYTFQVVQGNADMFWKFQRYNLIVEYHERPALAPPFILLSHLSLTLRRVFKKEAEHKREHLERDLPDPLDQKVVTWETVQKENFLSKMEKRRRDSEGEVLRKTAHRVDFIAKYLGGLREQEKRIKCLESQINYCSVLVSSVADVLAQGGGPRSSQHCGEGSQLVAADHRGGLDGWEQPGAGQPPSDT
Description: Modulation of the activity of human taste receptor proteins was measured in live cells on a fluorescent imaging plate reader (FLIPR). The basis of the assay (shown in FIG. 1) is the calcium-dependent activation of the ion channel which occurs via by activation of a G-protein coupled receptor (GPCR). GPCR activation by an appropriate agonist causes a transient increase in intercellular Ca^2+ ion concentration which in turn causes the ion channel to open, allowing an influx of Na^+ ions. This influx leads to a change in the membrane potential of the cell, which can be monitored as a change in the fluorescent signal from voltage-dependent (membrane potential) fluorescent dyes.
A schematic representation of the assay is shown in FIGS. 2(A) and 2(B), where traces of fluorescent response versus time are shown for cells transfected with a plasmid encoding human TRPM5 or cells containing sham plasmid controls.
For the screening assay, the human TRPM5 gene was cloned, HEK293 cells were transfected with a plasmid containing the gene, and a stable, high expression clone was chosen for the screen. Cells were grown in standard media at 37° C. The day before screening, the cells were removed from flasks and added to 384 well clear bottom plates (12K cells in 20 μL/well). On the assay day, 20 μL of membrane potential dye (Part No. R8123, Molecular Devices Corp.) was added to the cells and dye was allowed to be taken up, i.e., loaded, into the cells for 1 hr at 37° C. […] The assay was started by addition of 10 μL of solution from the compound plate into the cell plate. During this process, continuous fluorescent recordings were made simultaneously for all wells. After addition of the compound solution, the tips were automatically washed and 10 μL of a stimulation solution of 60 μM ATP (an agonist for an endogenous purinurgic GPCR), was added to all wells of the cell plate (to give a final concentration of 10 μM ATP). The height of the response was calculated and percent inhibition values, versus negative control wells, was calculated for the test samples.
(§1) Unless otherwise indicated, the data in Table 1 were determined using the assays described above, providing maximum percent inhibition data at concentrations between 10 μM and 100 μM.

[1] = test system: GPCR-mediated calcium activation step; assay: Calcium counterscreen (calcium sensitive dye, ATP stimulation, same cells); assay type: cell-based; conditions: maximum percent inhibition at concentrations between 10 μM and 100 μM, Calcium3 dye
Description: Two counterscreen assays were run on separate cell plates utilizing the same cells as described above. In the calcium counterscreen, the cells were loaded with a calcium sensitive dye (Calcium3 Dye, Part no. 8090, Molecular Devices Corp.) and stimulated by ATP to check for compounds that block the GPCR-mediated calcium activation step. In the KCl counterscreen, cells were stimulated with 120 mM KCl (to give a final concentration of 20 mM KCl) instead of ATP to check for compounds that inhibit the membrane potential response by virtue of being non-specific ion channel blockers.
as §1

SMILES	TRPM5 Activity (maximum percent inhibition) (human TRPM5) [%]	Calcium Counterscreen (maximum percent inhibition) [1] [%]	melting point [°C]
Nc1ccc(-c2nc(-c3ccccc3)c(-c3ccccc3)[nH]2)cc1 [Example 3, 4-(4,5-diphenyl-1H-imidazol-2-yl)aniline]	42	0	–
COC(=O)c1ccc(-c2nc(-c3ccccc3)c(-c3ccccc3)[nH]2)cc1 [Example 1, methyl4-(4,5-diphenyl-1H-imidazol-2-yl)benzoate]	79	0	–
O=C(O)c1ccc(-c2nc(-c3ccccc3)c(-c3ccccc3)[nH]2)cc1 [Example 9, 4-(4,5-diphenyl-1H-imidazol-2-yl)benzoic acid]	60	0	–
OCc1ccc(-c2nc(-c3ccccc3)c(-c3ccccc3)[nH]2)cc1 [Example 2, [4-(4,5-diphenyl-1H-imidazol-2-yl)phenyl]methanol]	50	0	50
CS(=O)(=O)NCc1ccc(-c2nc(-c3ccccc3)c(-c3ccccc3)[nH]2)cc1 [Example 8, N-[4-(4,5-diphenyl-1H-imidazol-2-yl)benzyl]methanesulfonamide]	90	0	–
COC(=O)Nc1ccc(-c2nc(-c3ccccc3)c(-c3ccccc3)[nH]2)cc1 [Example 5, methyl4-(4,5-diphenyl-1H-imidazol-2-yl)phenylcarbamate]	19	0	–
Oc1ccc(-c2nc(-c3ccccc3)c(-c3ccccc3)[nH]2)cc1 [Example 4, 4-(4,5-diphenyl-1H-imidazol-2-yl)phenol]	51	0	–
N#Cc1ccc(-c2nc(-c3ccccc3)c(-c3ccccc3)[nH]2)cc1 [Example 7, 4-(4,5-diphenyl-1H-imidazol-2-yl)benzonitrile]	0	0	–
O=[N+]([O-])c1ccc(-c2nc(-c3ccccc3)c(-c3ccccc3)[nH]2)cc1 [Example 10, 2-(4-nitro-phenyl)-4,5-diphenyl-1H-imidazole]	100	0	–
CC(=O)Nc1ccc(-c2nc(-c3ccccc3)c(-c3ccccc3)[nH]2)cc1 [Example 6, N-[4-(4,5-diphenyl-1H-imidazol-2-yl)phenyl]acetamide]	29	0	–

Source: patent US20070259875A1, “Triaryl substituted imidazole derivatives and taste-inhibiting uses thereof” (priority 2006, published 2007)
